# System: Metabolism protein genes
# Experiment: DNA chip mRNA expression in yeast, metabolism protein genes (Table 7)
# Format: cell-based, Saccharomyces cerevisiae S288C
# Experimental: Yeast (Saccharomyces cerevisiae S288C (α SUC2mal mel gap2 CUP1)) were incubated at 25° C. on YPD medium (yeast extract 1%, polypepton 2%, glucose 2%). One of toxic chemical substances was added to the cells at logarithmic growth phase, and the cells were further incubated for two hours. Cells were cultured without any chemical substance in the same condition, and were used as control. Concentrations of the chemical substances were defined to inhibit the growth of the yeast but not lead to death.
# After completion of the incubation, the culture was centrifuged to collect the cells. To the cells, sodium acetate buffer (50 mM sodium acetate, 10 mM EDTA, 1% SDS) was added, and the mixture was shaken at 65° C. for five minutes, followed by returning to room temperature, and obtaining the supernatant, of which the procedures were repeated two times. To the supernatant, ½ amount of a solution of phenol/chloroform was added, and the mixture was centrifuged to give a supernatant, which was added with an equal amount of chloroform, and the mixture was centrifuged to give a supernatant. To the supernatant, an equal amount of isopropanol containing 0.3 M sodium acetate was added, and the mixture was allowed to stand at room temperature for 30 minutes, after which the mixture was centrifuged to give a sediment of the whole RNAs. Seventy % ethanol was added to the sediment, and the mixture was again centrifuged to give a sediment, which was then dried and dissolved in water. mRNA was isolated from the whole RNAs as followings. In view of the fact that a poly A chain is attached to the 3′ terminus of mRNA, a polynucleotide having a poly T structure which was immobilized on the surface of latex beads was used to trap the mRNA, and then the mRNA was washed and eluted with spine column (Oligotex-dT30<Super>mRNA Purification Kit, Takara). Reverse transcription of the mRNA was conducted with a reverse transcriptase (Super Script II Reverse Transcriptase; catalogue No. 18064-014, GibcoBRL) using fluorescence-labeled nucleotides to give cDNAs that were introduced with Cy3-dUTP or Cy5-dUTP during the reverse transcription.
# The labeled cDNAs were dissolved in TE buffer (10mM Tris-HCl/1 mM EDTA, pH8.0), and the solution was dropped on the DNA chip containing the whole genes of yeast (DNA Chip Research Inc. Japan) so that the cDNAs were hybridized on the DNA chip at 65° C. for over 12 hours. The fluoresces intensity of the DNA chip was read with a scanner, and the ratio relative to the fluorescence intensity resulting from the absence of chemical substance was estimated as the following, which is shown in Tables 1 to 9: […]
smiles,measurement,setting,value
"C[S+](C)[O-] [(15), dimethylsulfoxide]",The level of expressed mRNA in the presence of chemical substance/The level of expressed mRNA in the absence of chemical substance,yeast gene YJL099W,1.4
same,level of expressed mRNA in the presence/in the absence of chemical substance,yeast gene YJL121C,1.0
same,level of expressed mRNA in the presence/in the absence of chemical substance,yeast gene YJL167W,1.6
same,The level of expressed mRNA in the presence of chemical substance/The level of expressed mRNA in the absence of chemical substance,yeast gene YJL172W,1.2
same,level of expressed mRNA in the presence/in the absence of chemical substance,yeast gene YJL216C,1.2
same,level of expressed mRNA in the presence/in the absence of chemical substance,yeast gene YJR077C,1.5
same,The level of expressed mRNA in the presence of chemical substance/The level of expressed mRNA in the absence of chemical substance,yeast gene YJR137C,1.0
same,level of expressed mRNA in the presence/in the absence of chemical substance,yeast gene YJR143C,1.1
same,The level of expressed mRNA in the presence of chemical substance/The level of expressed mRNA in the absence of chemical substance,yeast gene YKL035W,1.0
same,level of expressed mRNA in the presence/in the absence of chemical substance,yeast gene YKL060C,1.6
same,The level of expressed mRNA in the presence of chemical substance/The level of expressed mRNA in the absence of chemical substance,yeast gene YKL091C,1.1
same,The level of expressed mRNA in the presence of chemical substance/The level of expressed mRNA in the absence of chemical substance,yeast gene YKL104C,3.3
same,level of expressed mRNA in the presence/in the absence of chemical substance,yeast gene YKL148C,0.6
same,The level of expressed mRNA in the presence of chemical substance/The level of expressed mRNA in the absence of chemical substance,yeast gene YKL152C,1.8
same,level of expressed mRNA in the presence/in the absence of chemical substance,yeast gene YKL157W,1.2
same,The level of expressed mRNA in the presence of chemical substance/The level of expressed mRNA in the absence of chemical substance,yeast gene YKL213C,1.1
same,The level of expressed mRNA in the presence of chemical substance/The level of expressed mRNA in the absence of chemical substance,yeast gene YKL215C,0.9
same,level of expressed mRNA in the presence/in the absence of chemical substance,yeast gene YKR034W,1.7
same,level of expressed mRNA in the presence/in the absence of chemical substance,yeast gene YLR006C,0.9
same,level of expressed mRNA in the presence/in the absence of chemical substance,yeast gene YLR044C,2.2
same,level of expressed mRNA in the presence/in the absence of chemical substance,yeast gene YLR056W,0.9
same,level of expressed mRNA in the presence/in the absence of chemical substance,yeast gene YLR058C,1.5
same,level of expressed mRNA in the presence/in the absence of chemical substance,yeast gene YLR081W,0.7
same,level of expressed mRNA in the presence/in the absence of chemical substance,yeast gene YLR089C,1.7
same,The level of expressed mRNA in the presence of chemical substance/The level of expressed mRNA in the absence of chemical substance,yeast gene YLR180W,2.5
same,level of expressed mRNA in the presence/in the absence of chemical substance,yeast gene YLR284C,1.0
same,The level of expressed mRNA in the presence of chemical substance/The level of expressed mRNA in the absence of chemical substance,yeast gene YLR299W,1.5
same,The level of expressed mRNA in the presence of chemical substance/The level of expressed mRNA in the absence of chemical substance,yeast gene YLR300W,2.7
same,level of expressed mRNA in the presence/in the absence of chemical substance,yeast gene YLR304C,1.6
same,The level of expressed mRNA in the presence of chemical substance/The level of expressed mRNA in the absence of chemical substance,yeast gene YLR307W,3.9
same,The level of expressed mRNA in the presence of chemical substance/The level of expressed mRNA in the absence of chemical substance,yeast gene YLR348C,2.4
same,level of expressed mRNA in the presence/in the absence of chemical substance,yeast gene YLR354C,2.4
same,level of expressed mRNA in the presence/in the absence of chemical substance,yeast gene YLR372W,0.7
same,level of expressed mRNA in the presence/in the absence of chemical substance,yeast gene YML022W,0.6
same,The level of expressed mRNA in the presence of chemical substance/The level of expressed mRNA in the absence of chemical substance,yeast gene YML054C,1.1
same,The level of expressed mRNA in the presence of chemical substance/The level of expressed mRNA in the absence of chemical substance,yeast gene YML070W,0.9
same,level of expressed mRNA in the presence/in the absence of chemical substance,yeast gene YMR011W,0.6
same,level of expressed mRNA in the presence/in the absence of chemical substance,yeast gene YMR015C,1.2
same,level of expressed mRNA in the presence/in the absence of chemical substance,yeast gene YMR083W,1.3
same,The level of expressed mRNA in the presence of chemical substance/The level of expressed mRNA in the absence of chemical substance,yeast gene YMR105C,0.9
same,The level of expressed mRNA in the presence of chemical substance/The level of expressed mRNA in the absence of chemical substance,yeast gene YMR189W,5.6
same,level of expressed mRNA in the presence/in the absence of chemical substance,yeast gene YMR205C,0.9
same,level of expressed mRNA in the presence/in the absence of chemical substance,yeast gene YMR261C,0.8
same,The level of expressed mRNA in the presence of chemical substance/The level of expressed mRNA in the absence of chemical substance,yeast gene YMR271C,0.6
same,The level of expressed mRNA in the presence of chemical substance/The level of expressed mRNA in the absence of chemical substance,yeast gene YMR296C,6.7
same,level of expressed mRNA in the presence/in the absence of chemical substance,yeast gene YMR323W,37.3
same,The level of expressed mRNA in the presence of chemical substance/The level of expressed mRNA in the absence of chemical substance,yeast gene YNL012W,1.6
same,level of expressed mRNA in the presence/in the absence of chemical substance,yeast gene YNL025C,1.4
same,The level of expressed mRNA in the presence of chemical substance/The level of expressed mRNA in the absence of chemical substance,yeast gene YNL037C,0.9
same,The level of expressed mRNA in the presence of chemical substance/The level of expressed mRNA in the absence of chemical substance,yeast gene YNL045W,0.8
same,The level of expressed mRNA in the presence of chemical substance/The level of expressed mRNA in the absence of chemical substance,yeast gene YNL104C,2.5
same,The level of expressed mRNA in the presence of chemical substance/The level of expressed mRNA in the absence of chemical substance,yeast gene YNL106C,3.3
same,level of expressed mRNA in the presence/in the absence of chemical substance,yeast gene YNL192W,2.1
same,The level of expressed mRNA in the presence of chemical substance/The level of expressed mRNA in the absence of chemical substance,yeast gene YNL231C,0.9
same,The level of expressed mRNA in the presence of chemical substance/The level of expressed mRNA in the absence of chemical substance,yeast gene YNL331C,2.3
same,The level of expressed mRNA in the presence of chemical substance/The level of expressed mRNA in the absence of chemical substance,yeast gene YNL332W,5.4
same,The level of expressed mRNA in the presence of chemical substance/The level of expressed mRNA in the absence of chemical substance,yeast gene YNR002C,1.0
same,The level of expressed mRNA in the presence of chemical substance/The level of expressed mRNA in the absence of chemical substance,yeast gene YNR019W,1.6
same,The level of expressed mRNA in the presence of chemical substance/The level of expressed mRNA in the absence of chemical substance,yeast gene YNR033W,1.3
same,The level of expressed mRNA in the presence of chemical substance/The level of expressed mRNA in the absence of chemical substance,yeast gene YNR059W,1.0
same,The level of expressed mRNA in the presence of chemical substance/The level of expressed mRNA in the absence of chemical substance,yeast gene YOL058W,2.7
same,level of expressed mRNA in the presence/in the absence of chemical substance,yeast gene YOL086C,1.6
same,level of expressed mRNA in the presence/in the absence of chemical substance,yeast gene YOL108C,1.5
same,level of expressed mRNA in the presence/in the absence of chemical substance,yeast gene YOL116W,0.7
same,The level of expressed mRNA in the presence of chemical substance/The level of expressed mRNA in the absence of chemical substance,yeast gene YOL126C,1.4
same,The level of expressed mRNA in the presence of chemical substance/The level of expressed mRNA in the absence of chemical substance,yeast gene YOL143C,1.0
same,The level of expressed mRNA in the presence of chemical substance/The level of expressed mRNA in the absence of chemical substance,yeast gene YOL153C,1.2
same,level of expressed mRNA in the presence/in the absence of chemical substance,yeast gene YOL156W,1.9
same,level of expressed mRNA in the presence/in the absence of chemical substance,yeast gene YOR002W,1.5
same,level of expressed mRNA in the presence/in the absence of chemical substance,yeast gene YOR085W,1.8
same,level of expressed mRNA in the presence/in the absence of chemical substance,yeast gene YOR103C,1.4
same,level of expressed mRNA in the presence/in the absence of chemical substance,yeast gene YOR108W,0.7
same,level of expressed mRNA in the presence/in the absence of chemical substance,yeast gene YOR128C,1.6
same,The level of expressed mRNA in the presence of chemical substance/The level of expressed mRNA in the absence of chemical substance,yeast gene YOR130C,1.0
same,The level of expressed mRNA in the presence of chemical substance/The level of expressed mRNA in the absence of chemical substance,yeast gene YOR136W,1.2
same,level of expressed mRNA in the presence/in the absence of chemical substance,yeast gene YOR142W,1.1
same,level of expressed mRNA in the presence/in the absence of chemical substance,yeast gene YOR176W,0.8
same,level of expressed mRNA in the presence/in the absence of chemical substance,yeast gene YOR178C,1.1
same,level of expressed mRNA in the presence/in the absence of chemical substance,yeast gene YOR251C,0.6
same,The level of expressed mRNA in the presence of chemical substance/The level of expressed mRNA in the absence of chemical substance,yeast gene YOR336W,0.6
same,level of expressed mRNA in the presence/in the absence of chemical substance,yeast gene YOR348C,1.6
same,The level of expressed mRNA in the presence of chemical substance/The level of expressed mRNA in the absence of chemical substance,yeast gene YPL017C,1.0
same,level of expressed mRNA in the presence/in the absence of chemical substance,yeast gene YPL028W,0.6
same,level of expressed mRNA in the presence/in the absence of chemical substance,yeast gene YPL057C,1.1
same,level of expressed mRNA in the presence/in the absence of chemical substance,yeast gene YPL135W,1.5
same,level of expressed mRNA in the presence/in the absence of chemical substance,yeast gene YPL148C,0.6
same,level of expressed mRNA in the presence/in the absence of chemical substance,yeast gene YPR113W,1.0
same,level of expressed mRNA in the presence/in the absence of chemical substance,yeast gene YPR165W,0.9
same,The level of expressed mRNA in the presence of chemical substance/The level of expressed mRNA in the absence of chemical substance,yeast gene YPR167C,0.9
same,level of expressed mRNA in the presence/in the absence of chemical substance,yeast gene YPR183W,0.9

# From patent publication US8192962B2, “Processes for detecting toxic substances” (Daikin Industries, Ltd., priority 2001, dated 2012)
